Columns and labels:
Format in all cases: cell-based
HeLa cells = test: CellTiter-Glo luminescent cell viability (cytotoxicity) assay; details: 10 μM test compound, inhibition of luminescence compared to control cells
Protocol: Cytotoxicity was assessed using Promega's CellTiter-Glo® luminescent cell viability assay (Promega Corporation, Madison, Wis., USA) as described in Promega Technical Bulletin TB288, revised August 2008. The assay was performed in HeLa cells at a maximum concentration tested of 10 μM of test compound. This assay measures the amount of adenosine triphosphate (ATP) present as a way of quantifying the presence and degree of metabolic activity in cell cultures.
Viable Hela cells were plated at a density of 3000 cells/well in 96 wells in black, clear bottom plates. Cells were allowed to attach to the plate by incubating overnight at 37° C. Test compounds were diluted in DMSO then further diluted in 10% FBS media. Media was removed from the cell plates and 50 μL of the solution was added to each well manually with the exception of the control well, which contained the same volume of 10% FBS media which includes 1% DMSO. Cells were incubated in the presence of compound undisturbed for 48 hours at 37° C. After the 48 hour compound exposure, 50 μL of the pCellTiter Glo® reagent was added. The cell plates were agitated on a shaker for 2 minutes to help lyse the cells. The plate was covered and read for luminescence.
Percent inhibition was calculated as follows: PCT_INHIB=100*[(U−T)/U] Where U represents the Luminescence of wells containing untreated cells and
T represents the Luminescence of wells containing compound-treated cells

H146 cell line = test: MTS tetrazolium assay (proliferation, non-adherent cell line); details: H146 cells, 5 days; for IC50: 50% inhibition of cell proliferation; for IC90: 90% inhibition of cell proliferation
Protocol: Proliferation was evaluated in a non-adherent cell line using the MTS tetrazolium dye assay according to the procedure of Malich and colleagues (G. Malich et al. Toxicology 1997, 124, 179-192). The cell line used was H146 (ATCC Number HTB-173™). The cells were grown in RPMI 1640 medium supplemented with 2.5% fetal bovine serum.
Cells were seeded into clear 96 well tissue culture treated plates at 20,000 cells per well. Plates were incubated overnight at 37° C. in a humidified incubator with 5% CO2. The next day, test compounds were serially diluted to three times the final concentration in the appropriate growth medium. 50 μL of a 3× dilution of drug was added per well for a final volume of 150 uL/well. […] 50 μL of 0.75% DMSO in growth media was added per well for a final volume of 150 uL/well. The plates were returned to the incubator. After 5 days CellTiter 96® AQueous One Solution (Promega Corporation, Madison, Wis., USA) (25 μL/well) was added to each well and the plates were placed back in the incubator for 2-3 h. The absorbance at 490 nm was measured for each well using a plate reader. The concentrations of compounds leading to 50% and 90% inhibition of cell proliferation were determined by using the curve-fitting functionality of Microsoft Excel from plots of the logarithm of the concentration versus percent inhibition. These concentrations represent the IC50 and IC90 values, respectively.

[1] = test system: H196, a small cell lung cancer cell line; test: MTT tetrazolium dye proliferation assay; details: H196 cells, 5 days; for IC50: 50% inhibition of cell proliferation; for IC90: 90% inhibition of cell proliferation
Protocol: Proliferation was evaluated in an adherent cell line by the tetrazolium dye assay according to the procedure of Denizot and Lang (F. Denizot and R. Lang J. Immunol. Methods 1986, 89, 271-277). The cell line used was H196, a small cell lung cancer cell line obtained from the ATCC (ATCC Number CRL-5823™). The cells were grown in RPMI 1640 medium supplemented with 2.5% fetal bovine serum.
Cells were seeded into clear 96 well tissue culture treated plates at 20,000 cells per well. Plates were incubated overnight at 37° C. in a humidified incubator with 5% CO2. The next day, test compounds were serially diluted to three times the final concentration in the appropriate growth medium. 50 μL of a 3× dilution of drug was added per well for a final volume of 150 uL/well. Six concentrations were tested for each compound ranging from 10 μM to 30 nM. […] 50 μL of 0.75% DMSO in growth media was added per well for a final volume of 150 uL/well. The plates were returned to the incubator and, after 5 days, the plates were analyzed as follows: 3-(4,5-dimethylthiazol-2-yl)-2,5-diphenyl-2H-tetrazolium bromide (thiazolyl blue; MTT; Sigma) was added to each well to yield a final concentration of 1.25 mg/mL. Plates were returned to the incubator for 3 hours. The MTT-containing medium was removed and the resulting formazan metabolite was solubilized in 100% ethanol while shaking for 10 minutes at room temperature. Absorbances were read in a plate reader at a wavelength of 570 nm with a 660 nm reference. The concentrations of compounds leading to 50% and 90% inhibition of cell proliferation were determined by using the curve-fitting functionality of Microsoft Excel from plots of the logarithm of the concentration versus percent inhibition. These concentrations represent the IC50 and IC90 values, respectively.

SMILES	Activity (PCT_INHIB @ 10 μM) (HeLa cells; 48 hours, 10 µM)	IC50 (H146 cell line)	IC90 (H146 cell line)	IC50 ([1]; NCI-H196, 120 h)	IC90 ([1]; NCI-H196, 120 h)	inhibition at 10 µM (HeLa cells; Homo sapiens, HeLa, 48 h, read-out: Activity (PCT_INHIB @ 10 μM))	IC50 [1]	IC90 [1]
COc1ccc(Cl)c(CN(Cc2cccc(CN3C(C(=O)N[C@H]4C[C@H]5C[C@@H]([C@@H]4C)C5(C)C)CCS3(=O)=O)c2)[C@H](CN(C)C)CC(C)(C)C)c1F (single isomer, unassigned; epimer 2) [Example 26]	97%	0.7 µM	1.2 µM	1.3 µM	1.8 µM	–	–	–
COc1ccc(Cl)c(CN(Cc2cccc(CN3C(C(=O)N[C@H]4C[C@H]5C[C@@H]([C@@H]4C)C5(C)C)CCS3(=O)=O)c2)[C@H](CN(C)C)CC(C)(C)C)c1F (single isomer, unassigned; epimer 1) [Example 25]	–	1.6 µM	3.1 µM	–	–	96%	1.4 µM	1.9 µM

From patent US8314250B2, “Sultam derivatives” (Hoffmann-La Roche Inc., priority 2009, dated 2012)
